Laboratory results reported in PMC8041276 (ACS Chemical Neuroscience, 2021).

Tests used:
[1] = target: 5-HT6R (Homo sapiens, UniProt P50406); experiment: Basal cAMP production (constitutive Gs signaling) in NG108-15 cells transiently expressing 5-HT6R, CAMYEL BRET; format: cell-based; design: expressed in transfected cells; host or cells: NG108-15 (transient, Lipofectamine 2000, cotransfected with the CAMYEL sensor); details: for functional profile: 5-HT6R-dependent Gs signaling, NG108-15 cells; for IC50: decrease of basal cAMP, NG108-15 cells transiently expressing 5-HT6R
5-HT6R, sequence (P50406 whole entry): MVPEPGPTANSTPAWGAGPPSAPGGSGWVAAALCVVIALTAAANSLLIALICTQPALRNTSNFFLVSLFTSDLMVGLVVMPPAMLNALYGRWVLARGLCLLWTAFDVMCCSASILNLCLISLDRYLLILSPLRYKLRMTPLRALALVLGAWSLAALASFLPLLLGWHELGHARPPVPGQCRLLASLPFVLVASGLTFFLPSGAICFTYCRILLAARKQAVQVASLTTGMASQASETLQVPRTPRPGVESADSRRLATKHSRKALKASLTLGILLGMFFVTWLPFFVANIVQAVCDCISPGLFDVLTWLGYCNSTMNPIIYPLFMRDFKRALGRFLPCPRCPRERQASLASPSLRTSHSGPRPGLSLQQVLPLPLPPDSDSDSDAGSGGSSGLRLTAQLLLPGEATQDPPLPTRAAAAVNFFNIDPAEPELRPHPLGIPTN
Protocol: NG108-15 cells were grown in Dulbecco’s modified Eagle’s medium (DMEM) supplemented with 10% dialyzed fetal calf serum, 2% hypoxanthine/aminopterin/thymidine (Life Technologies), and antibiotics. cAMP measurement was performed in cells transiently expressing 5-HT6R using the bioluminescence resonance energy transfer (BRET) sensor for cAMP, CAMYEL (cAMP sensor using YFP-Epac-RLuc).[45] NG108-15 cells were cotransfected in suspension with 5-HT6R (0.5 μg DNA/million cells) and CAMYEL constructs (1 μg DNA/million cells), using Lipofectamine 2000 according to the manufacturer’s protocol, and plated in white 96-well plates (Greiner) at a density of 50 000 cells per well. […] Coelanterazine H (Molecular Probes) was added at a final concentration of 5 μM and left at room temperature for 5 min. BRET was measured using a Mithras LB 940 plate reader (Berthold Technologies).

[2] = target: T1, 5-HT2AR (Homo sapiens, UniProt P28223); experiment: [3H]-ketanserin radioligand binding assay, CHO-K1 cells; details: mean of three experiments
T1 construct: host or cells: CHO-K1
T1 sequence (P28223 whole entry): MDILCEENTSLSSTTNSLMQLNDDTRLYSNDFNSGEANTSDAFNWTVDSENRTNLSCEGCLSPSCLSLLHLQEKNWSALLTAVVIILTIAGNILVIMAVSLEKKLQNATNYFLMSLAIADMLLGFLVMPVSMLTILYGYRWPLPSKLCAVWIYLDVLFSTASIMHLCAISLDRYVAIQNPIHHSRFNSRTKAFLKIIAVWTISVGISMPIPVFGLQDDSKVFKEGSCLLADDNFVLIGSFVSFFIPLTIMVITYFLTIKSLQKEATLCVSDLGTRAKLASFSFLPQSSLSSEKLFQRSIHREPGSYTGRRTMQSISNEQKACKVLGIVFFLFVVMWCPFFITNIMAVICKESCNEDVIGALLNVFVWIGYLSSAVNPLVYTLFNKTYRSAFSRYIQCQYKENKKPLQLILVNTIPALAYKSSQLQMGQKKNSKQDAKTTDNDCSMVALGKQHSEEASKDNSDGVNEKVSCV

[3] = test system: Salmonella typhimurium TA100; details: without S9 fraction
Protocol: Ames microplate fluctuation protocol (MPF) assay was performed with Salmonella typhimurium strain TA100, enabling the detection base substitution mutations. Bacterial strain and exposure and indicator medium were purchased from Xenometrix AG (Allschwil, Switzerland). The mutagenic potential of tested structures was evaluated by incubation of bacteria, incapable of producing histidine, with particular concentration of test compounds for 90 min in exposure medium, containing limited amount of histidine. The occurrence of reversion events to histidine prototrophy was observed as a growth of bacteria in the indicator medium without histidine after 48 h of incubation in room temperature. Bacterial growth in 384-well plates was visualized by color change of medium from violet to yellow due to addition of pH indicator dye. Compound was classified as mutagenic, if the fold increase in number of positive wells over the medium control baseline was greater than 2.0. The solvent control baseline was defined as the mean number of positive wells in the negative control sample, increased by one standard deviation. 1% DMSO in media was used as a negative and 4-nitroquinoline N-oxide (NQNO) as positive control. The experiment was performed in triplicate. Fraction S9 was not added.

[4] = test system: HepG2 cells; experiment: LDH assay, hepatotoxicity in HepG2 cells; format: cell-based, human; details: HepG2, 24 h, 0.1–25 μM
Protocol: (§1) Human hepatocellular carcinoma cells (HepG2) were cultured using standard procedures (protocol from ATCC). Cells were cultured in Eagle’s minimum essential medium (EMEM) in flasks with an area of 25 cm^2 (Falcon), supplemented with 10% of fetal bovine serum (FBS, Life Technologies) with the addition of 100 IU/mL penicillin (Sigma-Aldrich) and 100 μg/mL streptomycin (Sigma-Aldrich) and incubated at 37 °C in a humidified atmosphere with 5% CO2.
Cells were seeded at density 2 × 10^4 cells/per well in […] plates. After 24 h, compound 27 and reference standard DOX (highly cytotoxic agent) were added to final concentrations of 0.1–150 μM. After 24 h incubation, plates were centrifuged (200g, 2 min) and 50 μL of the supernatant was transferred into the corresponding 96-well plate. Subsequently, 50 μL of LDH-reaction mixture prepared according to the manufacturer’s instructions (Invitrogen) was added to each well. Incubation was conducted in darkness for 30 min at room temperature. Next, stop solution was added and absorbance was measured at 490 nm (A490) using a plate reader (Spectra Max iD3, Molecular Devices). Cytotoxicity was determined as follows: cytotoxicity (%) = [(compound LDH activity – spontaneous LDH activity)/(maximum LDH activity – spontaneous LDH activity)] × 100. The maximum LDH activity was prepared by treating cells with lysis buffer. […]

[5] = test system: HepG2 cells; experiment: MTT assay, hepatotoxicity in HepG2 cells; format: cell-based, human; details: HepG2, 24 h
Protocol: as §1
The MTT assay was used to determine the viability of HepG2 cells incubated in the presence of compound 27 and DOX. Cells were seeded at a density of 2 × 10^4 in 96-well plates. […] Following cell exposure to each compound 10 μL of MTT reagent (Sigma-Aldrich) was added to each well. After 4 h of incubation (37 °C, 5% CO2) the culture medium was aspirated and formazan crystals were dissolved in 100 μL of DMSO. Then, optical density (OD) at 570 nm was determined on a plate reader (Spectra Max iD3, Molecular Devices). Each individual experiment was repeated at least three times.

[6] = target: T2, CYP3A4 (Homo sapiens, UniProt P08684); experiment: CYP3A4 P450-Glo luminescent inhibition assay; format: in vitro ADME; details: 0.01–25 μM
T2 construct: purchased Promega (Madison, WI, USA)
T2 sequence (P08684 whole entry): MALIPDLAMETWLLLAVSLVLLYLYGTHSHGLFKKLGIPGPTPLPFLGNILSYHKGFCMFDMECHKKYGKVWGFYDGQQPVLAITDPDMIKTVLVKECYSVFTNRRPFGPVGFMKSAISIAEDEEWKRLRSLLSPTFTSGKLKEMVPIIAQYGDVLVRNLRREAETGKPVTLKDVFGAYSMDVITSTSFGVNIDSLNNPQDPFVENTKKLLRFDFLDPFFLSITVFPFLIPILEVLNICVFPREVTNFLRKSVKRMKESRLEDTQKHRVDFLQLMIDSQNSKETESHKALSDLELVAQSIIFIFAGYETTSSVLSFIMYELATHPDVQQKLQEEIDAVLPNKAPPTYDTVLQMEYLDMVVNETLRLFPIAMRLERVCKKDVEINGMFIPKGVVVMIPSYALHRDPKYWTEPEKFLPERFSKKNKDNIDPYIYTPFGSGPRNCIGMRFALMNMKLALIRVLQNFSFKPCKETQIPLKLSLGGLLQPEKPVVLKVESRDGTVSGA
Description: The luminescent CYP3A4 P450-Glo and CYP2D6 P450-Glo assays and protocols were provided by Promega (Madison, WI, USA). The P450-Glo systems based on the conversion proluciferins, derivatives of beetle luciferin [(4S)-4,5-dihydro-2-(6′-hydroxy-2′-benzothiazolyl)-4-thiazolecarboxylic acid] into D-luciferin were catalyzed by respective CYP isoform. D-Luciferin is formed and detected in a second reaction with the luciferin detection reagent (LDR). The amount of light produced in the second reaction is proportional to CYP activity.
The stock solutions (10 mM) of the references ketoconazole (KE), quinidine (QD), and examined compounds were performed in DMSO. The 4× concentrated dilutions were prepared before the assays. […]
The CYPs, proluciferin, and examined compounds (25 μL/well) were preincubated first for 5 min, and next the NADPH regeneration system was added (25 μL) to start the reaction. […] The control reactions for measuring the 100% of CYPs activity and minus-CYP negative control reactions for measure background luminescence were also prepared. […] Finally, LDR was added (50 μL/well), and after 20 min of incubation in room temperature the luminescence signal was measured with a microplate reader (EnSpire, PerkinElmer) in luminescence mode. […] The IC50 values and were calculated using GraphPad Prism 5 software.

SMILES | functional profile [1] | IC50 [1] [µM] | Ki [2] [µM] | mutagenicity (Ames test) [3] | cell membrane integrity (LDH test) [4] | metabolic activity of cells (MTT test) ([5]; 0.1–25 μM) | IC50 ([5]; Homo sapiens, printed in Figure 5A, read-out: IC50, cellular viability (MTT)) [µM] | IC50 [6] [µM]
O=C(N[C@H]1CCNC1)c1ccn(S(=O)(=O)c2cccc(Cl)c2)c1-c1ccc(F)cc1 [Compound 28, (S)-2-(4-Fluorophenyl)-1-[(3-chlorophenyl)sulfonyl]-N-(pyrrolidin-3-yl)-1H-pyrrole-3-carboxamide] | inverse agonist | 0.14 | 8.57 | – | – | – | – | –
O=C(N[C@@H]1CCNC1)c1ccn(S(=O)(=O)c2cccc(Cl)c2)c1-c1ccc(F)cc1 [Compound 27, (R)-2-(4-Fluorophenyl)-1-[(3-chlorophenyl)sulfonyl]-N-(pyrrolidin-3-yl)-1H-pyrrole-3-carboxamide] | inverse agonist | 0.265 | 13.5 | non-mutagenic | did not affect the cell membrane integrity | did not impair the metabolic activity of cells | 32.3 | 0.069
